According to ChEMBL document CHEMBL5252629, “The protein disulfide isomerase inhibitor 3-methyltoxoflavin inhibits Chikungunya virus” (Bioorg Med Chem, 2023):
In brackets after ≈: the same amount, converted by molar mass.

Columns and labels:
Chikungunya virus [1] = assay: Antiviral activity against CHIKV infected in hamster BHK-21 cells assessed as inhibition of viral replication at 20 uM measured after 48 hrs by renilla luciferase assay relative to control; format: functional; parameters: scale not given: the % may be the effect or the level left
Chikungunya virus [2] = assay: Antiviral activity against CHIKV infected in human foreskin fibroblast cells; format: functional, organism-based
Chikungunya virus [3] = assay: Antiviral activity against CHIKV-ZsGreen infected in African green monkey Vero incubated for 24 hrs by flow cytometry analysis; format: functional, organism-based
[4] = Apparent permeability of the compound across apical side to basolateral side in human Caco-2 cells; format: ADME, cell-based
[5] = Metabolic stability in mouse liver microsomes assessed as intrinsic clearance at 100 uM preincubated for 5 mins followed by NADPH addition and measured upto 60 mins by LCMS analysis; format: ADME, Microsome; conditions: time < 65 min, read-out: CLH
Yellow fever virus [6] = assay: Antiviral activity against Yellow fever virus 17D infected in Huh-7 cells assessed as reduction in cytopathic effect; format: functional, organism-based
[7] = Selectivity index, ratio of CC50 for human Huh-7 cells to EC50 for CHIKV S27 infected in Huh-7 cells assessed as reduction in cytopathic effect by neutral red staining based analysis; format: toxicity, cell-based; conditions: read-out: Ratio CC50/EC50
Chikungunya virus [8] = assay: Antiviral activity against CHIKV S27 infected in Huh-7 cells assessed as reduction in cytopathic effect by neutral red staining based analysis; format: functional, organism-based; conditions: S27, Huh-7
HepG2 = assay: Cytotoxicity against human HepG2 cells assessed as reduction in cell viability measured after 48 hrs by MTT assay; format: functional
[9] = Kinetic solubility of the compound in FaSSIF at pH 6.8 by LCMS analysis; format: ADME; conditions: read-out: Kinetic_solubility
[10] = Selectivity index, ratio of CC50 for human Huh-7 cells to EC50 for CHIKV S27 infected in Huh-7 cells; format: toxicity, cell-based; conditions: read-out: Ratio CC50/EC50
[11] = Selectivity index, ratio of CC50 for hamster BHK-21 cells to EC50 for CHIKV infected in hamster BHK-21 cells; format: toxicity, cell-based; conditions: read-out: Ratio CC50/EC50
Chikungunya virus [12] = assay: Antiviral activity against CHIKV S27 infected in Vero 76 cells assessed as reduction in cytopathic effect; format: functional; conditions: S27, Vero 76
[13] = Selectivity index, ratio of CC50 for human Huh-7 cells to EC50 for Yellow fever virus 17D; format: toxicity; conditions: read-out: Ratio CC50/EC50
Vero 76 = assay: Cytotoxicity against African green monkey Vero 76 cells assessed as reduction in cell viability incubated for 48 hrs by MTT assay; format: toxicity, cell-based; conditions: chlorocebus sabaeus, vero 76, 48 h
[14] = Metabolic stability in human liver microsomes assessed as hepatic clearance preincubated for 5 mins followed by NADPH addition and measured after 20 mins by LCMS analysis; format: ADME, Microsome; conditions: time 25 min
[15] = Inhibition of N-terminal His-tagged human PDI expressed in Escherichia coli BL21 (DE3) incubated for 1 hr
[16] = Apparent permeability of the compound across apical side to basolateral side in human Caco-2 cells assessed as drug recovery; format: ADME, cell-based
Huh-7 [17] = assay: Cytotoxicity against human Huh-7 cells assessed as reduction in cell viability incubated for 48 hrs by MTT assay; format: functional
[18] = Kinetic solubility of the compound in FaSSGF at pH 1.2 by LCMS analysis; format: ADME; conditions: read-out: Kinetic_solubility
Yellow fever virus [19] = assay: Antiviral activity against Yellow fever virus 17D infected in Huh-7 cells assessed as reduction in cytopathic effect by neutral red staining based analysis; format: functional, organism-based
[20] = Kinetic solubility of the compound in buffer at pH 7.4 by LCMS analysis; format: physicochemical; conditions: read-out: Kinetic_solubility
BHK-21 = assay: (§1) Cytotoxicity against hamster BHK-21 cells assessed as reduction in cell viability measured after 48 hrs by MTT assay; format: toxicity, cell-based, Mesocricetus auratus; conditions: bhk-21, 48 h
Huh-7 [21] = assay: Cytotoxicity against human Huh-7 cells infected with yellow fever virus assessed as reduction in cell viability incubated for 48 hrs by MTT assay; format: functional
Chikungunya virus [22] = assay: Antiviral activity against CHIKV S27 infected in Vero 76 cells assessed as reduction in cytopathic effect by neutral red staining based analysis; format: functional, organism-based; conditions: S27, Vero 76
Chikungunya virus [23] = assay: Antiviral activity against CHIKV infected in hamster BHK-21 cells assessed as inhibition of viral replication measured after 48 hrs by gaussia luciferase assay; format: functional, organism-based; conditions: BHK-21, 48 h
Chikungunya virus [24] = assay: Antiviral activity against CHIKV S27 infected in Huh-7 cells assessed as reduction in cytopathic effect; format: functional, organism-based; conditions: S27, Huh-7
[25] = Apparent permeability of the compound across basolateral side to apical side in human Caco-2 cells assessed as drug recovery; format: ADME, cell-based
Huh-7 [26] = assay: Cytotoxicity against human Huh-7 cells assessed as reduction in cell viability measured after 48 hrs by MTT assay; format: functional
[27] = Selectivity index, ratio of CC50 for human Huh-7 cells to EC50 for Yellow fever virus 17D assessed as reduction in cytopathic effect by neutral red staining based analysis; format: toxicity; conditions: read-out: Ratio CC50/EC50
Chikungunya virus [28] = assay: Antiviral activity against CHIKV infected in hamster BHK-21 cells; format: functional, organism-based
Chikungunya virus [29] = assay: Antiviral activity against CHIKV infected in […] Huh-7 cells; format: functional, organism-based
[30] = as §1; format: toxicity, cell-based, Mesocricetus auratus; conditions: BHK-21 cells
Chikungunya virus [31] = assay: Antiviral activity against CHIKV infected in African green monkey Vero cells; format: functional, organism-based

Cc1cc(C)nc(NS(=O)(=O)c2ccc(NC(=O)CN3C(=O)C4CC=CCC4C3=O)cc2)n1 (stereo not drawn)
Activity (Chikungunya virus [1]): 100%

COc1ccc(C(=O)/C=C/c2ccc(O)cc2)c(O)c1CC=C(C)C
Activity (Chikungunya virus [1]): 13.5%

O=C(C1CC1)N1CCN(Cn2sc3ccccc3c2=O)CC1
Activity (Chikungunya virus [1]): 14%

CC(C)n1ncc2c1N=C(O)CC2c1ccc(-c2ccc(C(=O)O)cc2)o1 (stereo not drawn)
Activity (Chikungunya virus [1]): 100%

O=C(O)c1ccc(S(=O)(=O)Nc2ccc(S(=O)(=O)Nc3ccccn3)cc2)cc1
Activity (Chikungunya virus [1]): 100%

O=C1CC(c2ccc(S(=O)(=O)Nc3ccccc3C(=O)Nc3ccc(F)cc3)cc2)CN1 (stereo not drawn)
Activity (Chikungunya virus [1]): 100%

O=C(O)c1nc(=O)[nH]c2ccccc12
IC50 (Chikungunya virus [2]): 23000 nM

Cc1nc(C)c(CN2CCCC(C(=O)Nc3cccc(-n4cnnn4)c3)C2)nc1C (stereo not drawn)
Activity (Chikungunya virus [1]): 100%

NC(=O)C1CCN(c2nc3c(c(=O)[nH]2)C(C(=O)Nc2ccccc2Cl)CC(=O)N3)CC1 (stereo not drawn)
Activity (Chikungunya virus [1]): 140%

Cc1cc([N+](=O)[O-])ccc1-c1ccc(C2N=C(O)c3c(sc4c3CCN(C)C4)N2)o1 (stereo not drawn)
Activity (Chikungunya virus [1]): 100%

OC(CNC1CCN(Cc2ccccc2)CC1)COc1ccccc1 (stereo not drawn)
EC50 (Chikungunya virus [3]): 1600 nM

Cn1c(=O)[nH]c2ccc(S(=O)(=O)NCCCOC34CC5CC(CC(C5)C3)C4)cc2c1=O
Activity (Chikungunya virus [1]): 100%

Cc1nc2c(=O)n(C)c(=O)nc-2n(C)n1
Papp [4]: 17.8 10^-6 cm/s | microsomal CLint at 100 µM [5]: 7.4 µL/min/mg | EC50 (Yellow fever virus [6]): 370 nM | selectivity ratio [7]: > 11 | EC50 (Chikungunya virus [8]): < 100 nM | CC50 (HepG2): 11000 nM | solubility kinetic [9]: 228 µM (≈ 47.1 µg/mL) | selectivity ratio [10]: 17 | selectivity ratio [11]: 30.8 | EC90 (Chikungunya virus [12]): > 1700 nM | selectivity ratio [13]: 3.2 | CC50 (Vero 76): 1700 nM | CLhep predicted [14]: < 6.1 mL/min/kg | IC50 [15]: 170 nM | Drug recovery [16]: 103% | CC50 (Huh-7 [17]): 1100 nM | solubility kinetic [18]: 424 µM (≈ 87.7 µg/mL) | EC50 (Yellow fever virus [19]): 420 nM | solubility kinetic [20]: 400 µM (≈ 82.8 µg/mL) | CC50 (BHK-21): 6200 nM | CC50 (Huh-7 [21]): 1200 nM | EC50 (Chikungunya virus [22]): > 1700 nM | EC50 (Chikungunya virus [23]): 200 nM | Activity (Chikungunya virus [1]): 2% | EC50 (Chikungunya virus [24]): 190 nM | Drug recovery [25]: 93.5% | CC50 (Huh-7 [26]): 3200 nM | selectivity ratio [27]: 2.9

CC(=O)c1ccc(S(=O)(=O)NC(=O)NC2CCCCC2)cc1 [ACETOHEXAMIDE]
Activity (Chikungunya virus [1]): 100%

CCN(CC)Cc1cc(Nc2ccnc3cc(Cl)ccc23)ccc1O [AMODIAQUINE]
Activity (Chikungunya virus [1]): 19%

CN1[C@@H]2CC[C@H]1C[C@@H](OC(=O)C(CO)c1ccccc1)C2 (stereo partly drawn) [ATROPINE]
Activity (Chikungunya virus [1]): 149.2%

COc1c(O)cc2c(c1O)[C@@H]1O[C@H](CO)[C@@H](O)[C@H](O)[C@H]1OC2=O [BERGENIN]
Activity (Chikungunya virus [1]): 100%

C[C@@H]1C[C@H]2[C@@H]3CCC4=CC(=O)C=C[C@]4(C)[C@@]3(F)[C@@H](O)C[C@]2(C)[C@@]1(O)C(=O)CO [DEXAMETHASONE]
Activity (Chikungunya virus [1]): 70.9%

C=CCc1ccc(OC)cc1 [ESTRAGOLE]
Activity (Chikungunya virus [1]): 100%

C=CCc1ccc(O)c(OC)c1 [EUGENOL]
Activity (Chikungunya virus [1]): 100%

OCCN1CCN(CCCN2c3ccccc3Sc3ccc(C(F)(F)F)cc32)CC1 [FLUPHENAZINE]
Activity (Chikungunya virus [1]): 11.6%

O=C1OC(CN2CCOCC2)CN1/N=C/c1ccc([N+](=O)[O-])o1 (stereo not drawn) [FURALTADONE]
Activity (Chikungunya virus [1]): 20.4%

O=C(CCCN1CCC(O)(c2ccc(Cl)cc2)CC1)c1ccc(F)cc1 [HALOPERIDOL]
Activity (Chikungunya virus [1]): 40.5%

CCC(C)n1ncn(-c2ccc(N3CCN(c4ccc(OCC5COC(Cn6cncn6)(c6ccc(Cl)cc6Cl)O5)cc4)CC3)cc2)c1=O (stereo not drawn) [ITRACONAZOLE]
EC50 (Chikungunya virus [28]): 320 nM

CCCCCc1c2c(cc(O)c1C(=O)O)OC(=O)c1c(cc(OC)cc1C(=O)CCCC)O2 [LOBARIC ACID]
EC50 (Chikungunya virus [29]): 5300 nM

CCCCN(CCCC)CC(O)c1cc(Cl)cc2c1-c1ccc(Cl)cc1/C2=C/c1ccc(Cl)cc1 (stereo not drawn) [LUMEFANTRINE]
Activity (Chikungunya virus [1]): 100%

C=CCN1CC[C@]23c4c5ccc(O)c4O[C@H]2C(=O)CC[C@@]3(O)[C@H]1C5 [NALOXONE]
Activity (Chikungunya virus [1]): 121.5%

CCCCCCCCCCC[C@@H](C[C@@H]1OC(=O)[C@H]1CCCCCC)OC(=O)[C@H](CC(C)C)NC=O [ORLISTAT]
Activity (Chikungunya virus [1]): 48.7%

c1ccc2c(c1)Nc1ccccc1S2 [PHENOTHIAZINE]
Activity (Chikungunya virus [1]): 73.7%

NC(=O)C1(N2CCCCC2)CCN(CCCC(=O)c2ccc(F)cc2)CC1 [PIPAMPERONE]
Activity (Chikungunya virus [1]): 102.9%

Clc1ccc2c(N3CCN(CCCN4CCN(c5ccnc6cc(Cl)ccc56)CC4)CC3)ccnc2c1 [PIPERAQUINE]
Activity (Chikungunya virus [1]): 138.1%

CN(C)CCCN1c2ccccc2Sc2ccccc21 [PROMAZINE]
Activity (Chikungunya virus [1]): 18%

CCN(CC)CCCC(C)Nc1c2ccc(Cl)cc2nc2ccc(OC)cc12 (stereo not drawn) [QUINACRINE]
selectivity ratio [11]: 1.6 | CC50 at 48 h [30]: 19800 nM | EC50 (Chikungunya virus [23]): 12000 nM | Activity (Chikungunya virus [1]): 12.5%

Cc1nnc(C(=O)NC(C)(C)c2nc(C(=O)NCc3ccc(F)cc3)c(O)c(=O)n2C)o1 [RALTEGRAVIR]
Activity (Chikungunya virus [1]): 58.9%

O=P(O)(O)C(O)(Cc1cccnc1)P(=O)(O)O [RISEDRONIC ACID]
Activity (Chikungunya virus [1]): 86.7%

OCc1ccccc1O[C@@H]1O[C@H](CO)[C@@H](O)[C@H](O)[C@H]1O [SALICIN]
Activity (Chikungunya virus [1]): 100%

CCN(CC)CCOc1ccc2c(c1)C(=O)c1cc(OCCN(CC)CC)ccc1-2 [TILORONE]
EC50 (Chikungunya virus [31]): 4200 nM | Activity (Chikungunya virus [1]): 100%

CC(C)=CCC/C(C)=C/Cc1c(O)ccc(C(=O)/C=C/c2ccc(O)cc2)c1O [XANTHOANGELOL]
selectivity ratio [11]: 1.7 | CC50 at 48 h [30]: 11800 nM | EC50 (Chikungunya virus [23]): 7100 nM | Activity (Chikungunya virus [1]): 8.4%

O=C1Cc2cc(CCN3CCN(c4nsc5ccccc45)CC3)c(Cl)cc2N1 [ZIPRASIDONE]
Activity (Chikungunya virus [1]): 101%
